Measured values reported in ChEMBL document CHEMBL3779780, “Chroman-4-one and chromone based somatostatin β-turn mimetics” (Eur J Med Chem, 2016).

Assays:
[1] = target: T1, Somatostatin receptor type 2 (Homo sapiens, UniProt P30874); assay: Displacement of [125I]tyr11-SRIF from human sst2 receptor after 60 mins by liquid scintillation counting method
[2] = target: T2, Somatostatin receptor type 4 (Homo sapiens, UniProt P31391); assay: Displacement of [125I]tyr11-SRIF from human sst4 receptor after 60 mins by liquid scintillation counting method
T2 sequence (P31391 whole entry): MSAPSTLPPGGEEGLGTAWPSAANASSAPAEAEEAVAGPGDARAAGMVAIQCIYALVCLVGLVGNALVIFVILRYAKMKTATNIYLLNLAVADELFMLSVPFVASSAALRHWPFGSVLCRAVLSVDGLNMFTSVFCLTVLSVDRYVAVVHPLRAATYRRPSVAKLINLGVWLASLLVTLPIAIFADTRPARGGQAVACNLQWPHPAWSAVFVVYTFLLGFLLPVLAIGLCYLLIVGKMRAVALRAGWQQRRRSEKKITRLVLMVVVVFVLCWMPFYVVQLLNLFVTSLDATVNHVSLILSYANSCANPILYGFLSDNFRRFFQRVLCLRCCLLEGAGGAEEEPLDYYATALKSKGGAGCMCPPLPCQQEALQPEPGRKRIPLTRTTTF

[3] = target: T1, Somatostatin receptor type 2; assay: Binding affinity to human sst2 receptor
[4] = target: T2, Somatostatin receptor type 4; assay: Binding affinity to human sst4 receptor
[5] = target: T2, Somatostatin receptor type 4; assay: Displacement of [125I]-SRIF14 from human sst4 receptor

T1 sequence (P30874 whole entry): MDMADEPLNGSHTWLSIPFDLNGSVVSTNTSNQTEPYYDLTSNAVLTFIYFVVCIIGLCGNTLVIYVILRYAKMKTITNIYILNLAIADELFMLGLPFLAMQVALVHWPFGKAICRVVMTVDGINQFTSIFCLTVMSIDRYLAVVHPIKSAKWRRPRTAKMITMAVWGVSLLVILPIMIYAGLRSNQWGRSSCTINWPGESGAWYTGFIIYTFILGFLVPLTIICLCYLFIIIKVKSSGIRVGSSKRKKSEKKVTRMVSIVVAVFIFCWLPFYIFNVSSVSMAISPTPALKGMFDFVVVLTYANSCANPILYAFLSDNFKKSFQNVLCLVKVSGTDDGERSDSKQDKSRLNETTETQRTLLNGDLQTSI

Row | Compound | Ki [1] | Ki [2] | Ki [3] | Ki [4] | Ki [5]
1 | NCCCc1cc(Cl)cc2c(=O)cc(CCc3cccc4ccccc34)oc12 | 2.66 µM | 1.17 µM |  |  | 
2 | NCCCCCOc1ccccc1OCCc1c[nH]c2ccccc12 |  |  | 4.69 µM | 2.02 µM | 
3 | CC(C)CC[C@]1(Cc2ccccc2)NC=C([C@@]2(Cc3ccccc3)NC=C([C@]3(CCCN)NC=C([C@@]4(CC(C)C)NC=C(Cc5ccccc5)C4=O)C3=O)C2=O)C1=O |  |  |  |  | 2.05 µM
4 | NCCCc1cc(Cl)cc2c1OC(CCc1cccc3ccccc13)CC2=O (racemic) | 6.85 µM | 7.09 µM |  |  | 
